Results on 2 compounds are retold here after patent publication US12234257B2, “Triterpene saponin derivative and use thereof” (KOREA INSTITUTE OF SCIENCE AND TECHNOLOGY, priority 2020, dated 2025).

Holding throughout (format): in vivo, mice (C57BL/6j)
Experiment [1] concerns DA level in ST. Kind of experiment: Measurement of DA level in ST (ELISA). The settings on record: MPTP 30 mg/kg mice. Here is the method: (§1) 40 mice were classified into five groups such that eight mice belonged to each group. After the habituation period, all mice were orally administered with a drug every day. While the mice of Groups 1 and 2 were administered with saline (p.o.), the mice of Groups 3, 4, and 5 were administered with 5 mg/kg ropinirole (p.o.), 5 mg/kg AKNS-2 (p.o.), and 15 mg/kg AKNS-2 (p.o.), respectively. […]
(§2) On the 7th day after the last administration of MPTP, SNpc and ST of each mouse were carefully excised and stored at −80° C. until use. […] A concentration of proteins contained in the supernatant was measured by the Bradford method. […]
DA levels in ST were measured using a competitive ELISA kit (Abnova, Taipei City, Taiwan) according to the manufacturer's instructions. […] After determining a concentration of proteins contained in the supernatant, the DA level in each brain sample was detected twice using the ELISA kit. Absorbance was measured using a microreader (BioTek, Vt., USA) at 450 nm, and the intensity was inversely proportional to the DA level. The DA level was expressed as ng/mg protein.

In experiment [2] the target is T1, MAO-B (Mus musculus, UniProt Q8BW75).
T1 construct: a MAO-B substrate was added to a MAO-B enzyme-containing substance (ST and SN samples); from tissue; host or cells: mouse brain: striatum (ST) and substantia nigra (SN/SNpc) homogenate supernatant
T1 sequence (Q8BW75 1-520): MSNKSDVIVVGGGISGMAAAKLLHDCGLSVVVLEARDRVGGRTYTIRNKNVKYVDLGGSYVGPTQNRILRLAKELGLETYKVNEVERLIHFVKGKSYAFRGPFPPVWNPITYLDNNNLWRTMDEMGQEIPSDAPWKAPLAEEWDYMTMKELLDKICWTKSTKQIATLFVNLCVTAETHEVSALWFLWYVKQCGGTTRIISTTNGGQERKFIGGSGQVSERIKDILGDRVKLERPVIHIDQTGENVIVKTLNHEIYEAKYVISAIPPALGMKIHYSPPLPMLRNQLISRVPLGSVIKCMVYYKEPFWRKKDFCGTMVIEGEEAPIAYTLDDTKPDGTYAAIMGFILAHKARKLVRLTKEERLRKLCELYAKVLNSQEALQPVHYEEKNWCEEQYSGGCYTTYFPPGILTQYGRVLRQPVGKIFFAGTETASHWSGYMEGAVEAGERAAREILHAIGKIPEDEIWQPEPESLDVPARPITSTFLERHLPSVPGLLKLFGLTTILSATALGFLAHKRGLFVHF
Briefly: Determination of MAO-B activity of ST and SN. The settings on record: both ST and SN; MPTP 30 mg/kg mice; 5 mg/kg and 15 mg/kg p.o. Here is the method: as §1, with “respectively. From the 5th day therefrom, the mice of Group 1 were intraperitoneally administered with a saline at 1 hour after gavage feeding of saline, and the mice of Groups 2, 3, 4, and 5 were administered with 30 mg/kg MPTP (i.p.) at 1 hour after gavage feeding of saline, ropinirole, AKNS-2 (5 mg/kg), and AKNS-2 (15 mg/kg), respectively.” for “respectively.”
as §2
A MAO-B assay kit of Promega Corporation (Woods Hollow Road, Madison, Wis., USA) was used to determine MAO-B activity of ST and SN according to the manufacturer's instructions. […] Luminescence signals were measured using an Infinite M1000 multimode microplate reader (TECAN, Männedorf, Switzerland). MAO-B activity was expressed as relative light unit (RLU)/mg protein).

Experiment [3] has as its system TH and α-synuclein. Kind of experiment: Western blot of TH and α-synuclein in ST and SN of MPTP-impaired mice. As to conditions: for α-synuclein level: vs MPTP-treated mice; for TH level: MPTP mice. Here is the method:
(§3) 40 mice were classified into five groups such that eight mice belonged to each group. After the habituation period, all mice were orally administered with a drug every day. While the mice of Groups 1 and 2 were administered with saline (p.o.), the mice of Groups 3, 4, and 5 were administered with 5 mg/kg ropinirole (p.o.), 5 mg/kg AKNS-2 (p.o.), and 15 mg/kg AKNS-2 (p.o.), respectively. From the 5th day therefrom, the mice of Group 1 were intraperitoneally administered with a saline at 1 hour after gavage feeding of saline, and the mice of Groups 2, 3, 4, and 5 were administered with 30 mg/kg MPTP (i.p.) at 1 hour after gavage feeding of saline, ropinirole, AKNS-2 (5 mg/kg), and AKNS-2 (15 mg/kg), respectively. Each mouse was administered with a single dose of saline/MPTP injection every day for 8 days. At 7 days after the final MPTP injection, all mice were sacrificed by cervical dislocation, and then the whole brain, SNpc, and striatum (ST) were excised for biochemical analysis.
(§4) On the 7th day after the last administration of MPTP, SNpc and ST of each mouse were carefully excised and stored at −80° C. until use. Thereafter, brain tissue of SNpc and ST was homogenized in a PRO-PREP™ lysis buffer (iNtRON, Gyeonggi, Korea) containing a phosphatase inhibitor cocktail set I (Sigma-Aldrich, Mo., USA). After shaking at 4° C. for 30 minutes, homogenates were centrifuged at 4° C. at 13000×g for 20 minutes, and a supernatant obtained therefrom was collected and added to a new 1.5 mL tube. A concentration of proteins contained in the supernatant was measured by the Bradford method. A part of the supernatant was mixed with the same volume of a loading buffer and denatured in a heater at 99° C. for 5 minutes for western blot analysis. The remaining supernatant was stored at −80° C. for subsequent tests for MAO-B activity and DA level using an ELISA kit.
Protein markers contained in lysates of the SH-SY5Y cells and brain tissue of the mice (SNpc and ST) were measured by western blot analysis. […] Then, proteins separated on the gel were transferred to a polyvinylidene fluoride (PVDF) membrane for 45 minutes using a Trans-Blot Turbo Transfer System (Bio-Rad, USA). The membrane was washed with tris-buffered saline with 0.1% Tween 20, TBST) for 5 minutes and then blocked by 5% skim milk dissolved in a TBST buffer. The membrane was further incubated with monoclonal primary antibodies derived from rabbits (anti-GAPDH, anti-AMPK, anti-p-AMPK, anti-ULK, anti-p-ULK555, anti-Erk, anti-p-Erk, anti-mTOR, anti-p-mTOR, anti-LC3B, anti-TH, and anti-α-synuclein antibodies). The primary antibodies were diluted in a blocking buffer at a ratio of 1:1000 and incubated overnight at 4° C. […] The intensity of the protein blots was quantified using Multi Gauge software (Fujifilm, Japan).

The test system of experiment [4] is autophagy-related protein markers including LC3, p62, AMPK, Erk, ULK, and mTOR. Briefly: Western blot of autophagy-related protein markers in ST and SN of mice. The settings on record: for expression of p-mTOR in ST / p-mTOR in SN: MPTP mice; for expression of p-ULK: ST and SN, vs MPTP. Here is the method:
as §3, §4
Protein markers contained in lysates of the SH-SY5Y cells and brain tissue of the mice (SNpc and ST) were measured by western blot analysis. […] Then, proteins separated on the gel were transferred to a polyvinylidene fluoride (PVDF) membrane for 45 minutes using a Trans-Blot Turbo Transfer System (Bio-Rad, USA). The membrane was washed with tris-buffered saline with 0.1% Tween 20, TBST) for 5 minutes and then blocked by 5% skim milk dissolved in a TBST buffer. The membrane was further incubated with monoclonal primary antibodies derived from rabbits (anti-GAPDH, anti-AMPK, anti-p-AMPK, anti-ULK, anti-p-ULK555, anti-Erk, anti-p-Erk, anti-mTOR, anti-p-mTOR, anti-LC3B, anti-TH, and anti-α-synuclein antibodies). The primary antibodies were diluted in a blocking buffer at a ratio of 1:1000 and incubated overnight at 4° C. On the second day, the membrane was washed with TBST three times (10 minutes each) and incubated at room temperature in a horseradish peroxidase-conjugated goat anti-rabbit IgG secondary antibody (diluted in a blocking buffer at a ratio of 1:2000). After incubating in the secondary antibody for 1 hour, the membrane was washed for 30 minutes. The protein blots on the membrane were developed using an ECL detection kit and visualized using an LAS-4000 mini system (Fujifilm, Japan). The intensity of the protein blots was quantified using Multi Gauge software (Fujifilm, Japan).

[5] abbreviates: both ST and SN, 5 mg/kg and 15 mg/kg p.o.
[6] abbreviates: 15 mg/kg p.o., vs MPTP treatment.
Setting [7] is: both ST and SN, vs MPTP treatment.

Consider `C[C@@H]1O[C@@H](O[C@@H]2[C@@H](O)[C@H](O[C@@H]3[C@@H](O[C@@H]4OC[C@@H](O)[C@H](O)[C@H]4O)[C@@H](O)[C@H](O[C@H]4[C@H](OC(=O)[C@]56CCC(C)(C)C[C@H]5C5=CC[C@@H]7[C@@]8(C)C[C@H](O)[C@H](O[C@@H]9O[C@H](CO)[C@@H](O)[C@H](O[C@@H]%10OC[C@@H](O)[C@H](O)[C@H]%10O)[C@H]9O)[C@@](C)(CO)[C@@H]8CC[C@@]7(C)[C@]5(C)C[C@H]6O)OC[C@H](O)[C@@H]4O)O[C@H]3C)OC[C@H]2O)[C@H](O)[C@H](O)[C@H]1O` [Compound 1, 3-O-β-D-xylopyranosyl-(1→3)-β-D-glucopyranosylpolygalacic acid 28-O-α-L-rhamnopyranosyl-(1→3)-β-D-xylopyranosyl-(1→4)-[β-D-xylopyranosyl-(1→3)]-α-L-rhamnopyranosyl-(1→2)-α-L-arabinopyranosyl ester], for which, in experiment [1] (15 mg/kg p.o.), the “DA level in ST” value is “the decrease in the DA level induced by MPTP was restored”. Also, the “activity of MAO-B increased by MPTP” value in experiment [2] was “could not reduce the activity of MAO-B”. Also, in experiment [3] (setting [5]), the α-synuclein level result is listed as “a significant decrease in the α-synuclein level” and the TH level result is listed as “considerably reversed”. In experiment [4] (setting [6]), the “expression of LC3-II in SN” value is “Although no noticeable difference was observed, increased expression of LC3-II was observed in SN” and the “expression of LC3-II in ST” value was “induced a significant increase in the expression of LC3-II in ST”. Besides, in experiment [4], the “expression of p-mTOR in ST” value is “clearly showed a tendency to decrease the expression of p-mTOR in ST” and the “p-mTOR in SN” value was “a significant decrease in p-mTOR”. Further, in experiment [4] (5 mg/kg and 15 mg/kg p.o.), the “expression of p-ULK” value was “significantly increased the expression of p-ULK in ST and SN”. For the same compound, the p62 levels entry in experiment [4] (both ST and SN, 5 mg/kg and 15 mg/kg p.o., vs MPTP-treated group) is “significantly decreased p62 levels”. The “expression of p-Erk” value in experiment [4] (both ST and SN, 15 mg/kg p.o., vs MPTP treatment) is “significantly increased”. For the same compound, the p-AMPK entry in experiment [4] (setting [7]) is “induced a significant increase in p-AMPK in both ST and SN”.

On to `CCCN(CCC)CCc1cccc2c1CC(=O)N2` [ropinirole, reference compound], for which, in experiment [1] (5 mg/kg p.o.), the “DA level in ST” value was “the decrease in the DA level induced by MPTP was restored”. The α-synuclein level entry in experiment [3] (ST and SN, 5 mg/kg p.o.) is recorded as “a significant decrease in the α-synuclein level”. For the same compound, the TH level entry in experiment [3] (both ST and SN, 5 mg/kg p.o.) was “considerably reversed”. For the same compound, in experiment [4], the “expression of p-mTOR in ST” value is listed as “clearly showed a tendency to decrease the expression of p-mTOR in ST” and the “p-mTOR in SN” value is “a significant decrease in p-mTOR”. Further, the “expression of p-ULK” value in experiment [4] (ropinirole) is “significantly increased the expression of p-ULK in ST and SN”. In experiment [4] (setting [7]), the p-AMPK entry was “induced a significant increase in p-AMPK in both ST and SN”.
